Experimental data taken from patent US20240287025A1, “TETRAHYDROQUINOLINE (THQ) COUMPOUNDS” (Centre National de la Recherche Scientifique, priority 2021, published 2024).

What was measured:
[1] = system: LPS-stimulated J774 mouse macrophages cells; assay: RNA sequencing, gene expression profiles of LPS-stimulated cells; type: cell-based; conditions: 10 μM, 6 h, RNAseq
Procedure: Experimental procedure: RNA was extracted from 5 million of LPS-stimulated J774 mouse macrophages cells treated for 6 h with DMSO (negative control), reference iBETs (JQ1 and iBET726, 1 μM) and lead compounds (MLE83 and JUP102, 10 μM) using Trizol (Invitrogen) according to manufacturer's instructions. RNA sequencing was subcontracted to BGI Genomics ([…] Sequencing Technology). FASTQ sequencing files were aligned to mouse genome (GRCm39 assembly) using STAR (v2.7.1a). Bam files were counted using HTSeq framework (v0.11.2). Reads normalization and differential analysis was performed suing SARTools and DESeq2 (v1.22.2) R packages. Genes were considered as differentially expressed when |log 2FC|>1 AND p value <0.05 between control and treated conditions. Gene Set Enrichment Analysis was performed using GSEA v4.2.1 software against the hallmark v7.5 gene sets from the Broad Institute Molecular Signature Database. A detailed description of GSEA methodology and interpretation is provided online (http://www.broadinstitute.org/gsea/doc/GSEAUserGui-deFrame.html).

Brd4 BD2 = Brd4 BD2 (Homo sapiens (Human), UniProt O60885); assay: HTRF evaluation of bromodomain inhibitors, Brd4 BD2; type: binding; conditions: for IC50: HTRF, H4ac4 peptide 600 nM, 24 h at 4° C.; for Selectivity BD2/BD1: ratio of the BD1 and BD2 IC50
Procedure: (§1) HTRF reagents and buffers were purchased from Cisbio Bioassays. The assay used a terbium (Ill) cryptate donor reagent conjugated to an anti-GST antibody (MAb anti-GST-Tb; GSTTLA), a streptavidin-conjugated acceptor reagent (streptavidin-d2) and Cisbio proprietary buffers (EPlgeneous Binding Domain Diluent and Detection buffer, respectively). GST-tagged bromodomains (BDs) were expressed in E. coli and purified using standard procedures. Incubation of GST-tagged BDs with biotinylated acetylated H4 peptide (H4K5acK8acK12acK16ac, here named H4ac4) brings the donor and acceptor into close proximity and allows for a FRET reaction. GST-tagged proteins in 25 mM Hepes pH 7.5, 150 mM NaCl, 0.5 mM DTT were assayed at a final concentration of 5 nM. Biotinylated H4ac4 peptides were used at a final concentration of 50, 600 nM in assays involving Brd4 BD1, Brd4 BD2, respectively. The antibody-conjugated donor was used at 0.5 nM and the streptavidin-conjugated acceptor was used at ⅛ of the H4ac4 peptide concentration. Inhibitors were tested by performing an eleven-point dilution series with a maximal final concentration of […]. These concentrations allowed a fixed DMSO concentration at 0.2%, critical for a Z′ factor ≥0.8. Components were incubated at 4° C. for 4 h (BD1) or for 24 h (BD2). Experiments were performed in 384-well white plates (Greiner ref. 781080) and analyzed in a ClarioStar plate reader (BMG LABTECH, excitation at 330 nm and emission at 620 and 665 nm, corresponding to the donor and acceptor emission peaks, respectively; the 665/620 ratio is used to calculate the specific HTRF signal) with an integration delay of 60 μs and an integration time of 400 μs.

J774 mouse macrophages = assay: Cytotoxicity and anti-inflammatory activity (IL-6/TNFα, AI score) after iBET/LPS treatment; type: cell-based; conditions: AI score versus cytotoxicity, FIG. 7
Procedure: J774 mouse macrophages were cultured in DMEM 10% Fetal Calf Serum (FCS) 1% penicillin and streptomycin at 37° C. 5% CO2. […]. Cells were then seeded at 250,000 cells/ml and treated with 1 μM, 10 μM and 100 μM for each iBET and, then, after 30 min, with 100 μg/ml LPS (lipopolysaccharides, Cell Signaling Technology ref: 14011S) to induce inflammatory response. After 24 h, cytotoxicity was evaluated using CytoTox-ONE™ Homogeneous Membrane Integrity Assay and/or CellTiter 96 Non-radioactive Cell Proliferation Assay (Promega) according to manufacturer's instructions. IL6 and TNFα secretion were assessed using respectively IL-6 Mouse ELISA assay and TNFα Mouse ELISA assay (Invitrogen) according to manufacturer's instructions.
Experimental procedure: J774 mouse macrophages were cultured in DMEM 10% Fetal Calf Serum (FCS) 1% penicillin and streptomycin at 37° C. 5% CO2. […] After 24 h, cytotoxicity was evaluated using the Cell Proliferation Kit I (Roche) according to manufacturer's instructions. IC50 were calculated using GraphPad (Prism) using non linear regression curve fit. IL6 and TNF[…] secretion was assessed using respectively IL-6 Mouse and TNFα Mouse ELISA assay (Invitrogen) on cell culture supernatants according to manufacturer's instructions. […]

Brd4 BD1 = Brd4 BD1 (Homo sapiens (Human), UniProt O60885); assay: HTRF evaluation of bromodomain inhibitors, Brd4 BD1; type: binding; conditions: H4ac4 peptide 50 nM, 4 h at 4° C.
Procedure: as §1

| Structure (SMILES) | GSEA analysis, iBET-associated cellular responses [1] | IC50 (Brd4 BD2) | Selectivity BD2/BD1 (Brd4 BD2) | inflammatory activity/toxicity ratio (J774 mouse macrophages) | IC50 (Brd4 BD1) | number of genes impacted, times fewer than JUP102 [1] |
| --- | --- | --- | --- | --- | --- | --- |
| C#CCOCCOCCOCc1cn([C@@H]2c3cc(C(=O)OC)ccc3N(C(C)=O)[C@@H](CC)[C@H]2C)nn1 [XQ] | reduces inflammatory response and MYC signaling | 1490 nM | 11.2 | best inflammatory activity/toxicity ratio | 16600 nM |  |
| C=CCCCC(=O)Nc1ccc(-c2ccc3c(c2)[C@@H](n2cc(-c4ccccc4)nn2)[C@H](C)[C@H](CC)N3C(C)=O)cc1 [XD, N-(4-((2S,3R,4S)-1-acetyl-2-ethyl-3-methyl-4-(4-phenyl-1H-1,2,3-triazol-1-yl)-1,2,3,4-tetrahydroquinolin-6-yl)phenyl)hex-5-enamide] | reduces inflammatory response and MYC signaling | 620 nM | 1.1 | best inflammatory activity/toxicity ratio | 562 nM | ~10 times |
